Experiments:
[1] = test system: mouse immortalized bone marrow macrophages B10A.4; assay: Calcein AM cytotoxicity assay, B10A.4 cells; conditions: read-out: Cytotoxicity IC50, B10A.4, first column headed B10A.4, 72 hours
Description: (§1) All compound concentrations were examined in duplicates. […] Zero cytotoxicity is a basic prerequisite for the use of these substances in cosmetical applications. To assess the antitumor activity, the toxicity of new derivatives on panels containing cell lines of different histogenic and species origin was tested (Table 5). […] The compounds listed in Table 5 can be divided into 2 groups.
(§2) The first group contains "classical cytokinins" represented by 6-substituted purines (their effects are already known). The second group includes novel 2-fluoro-N6-substituted-9-(2-oxacycloalkyl)-9H-purine-6-amine derivatives. […] Low cytotoxicity (high IC50 value) of the compounds is the basic prerequisite for cosmetic and medical applications. […] Table 5: Cytotoxicity of novel compounds for different normal cell lines tested / IC50 (µmol/L)

[2] = test system: BJ (human foreskin fibroblasts); assay: Calcein AM cytotoxicity assay, BJ cells; conditions: read-out: Cytotoxicity IC50, BJ; Calcein AM, 72 hours
Description: as §1, §2

[3] = test system: Mouse fibroblasts NIH3T3; assay: Calcein AM cytotoxicity assay, NIH3T3 cells; conditions: read-out: Cytotoxicity IC50, NIH-3T3; Calcein AM, 72 hours
Description: as §1, §2

[4] = test system: Arabidopsis thaliana; assay: Effect on the root proliferation of Arabidopsis thaliana; assay type: in vivo, Arabidopsis thaliana (ecotype Columbia); conditions: for Concentration with highest activity: number of lateral roots; for Activity (%) [10^-8 mol.l^-1 Kin = 100%]: number of lateral roots (% of control), at concentration with highest activity
Description: Arabidopsis thaliana seeds (ecotype Columbia) were sterilized with 70% ethanol and 0.1% Triton X-100 and then washed with 70% ethanol containing 0.01% Triton X-100. Then the seeds were transferred to vertical square petri dishes (11 seeds per dish) on a solid medium consisting of MS (2.15 g/l), MES (0.5 g/l), sucrose (1 g/l), agar (11 g/l), buffered to pH 5.8, and various concentrations of tested compounds. The compounds were dissolved in DMSO, thus 0.05% DMSO was used as a control solution. After incubation for 3 days in darkness at 4°C, the seeds were germinated and grown in an environmental chamber (fluorescence light intensity 150 µE m^-2 s^-1, humidity 55%, 16 h day/8 h night, 22°C). […] The number of lateral roots was scored under a stereomicroscope. […] In addition, compounds with tetrahydropyranyl protection at N9 slightly increase the number of emerged lateral roots (Fig 3C). […] Table 6: […]

[5] = test system: Zea mays seedlings; assay: Effect on development of Zea mays seedlings (hydroponic); assay type: in vivo, Zea mays cv. CELLUX; conditions: for Root dry mass (%) [4 x 10^-8 mol.l^-1 Kin = 100%] / Shoot dry mass (%) [10^-6 mol.l^-1 Kin = 100%]: at concentration with highest activity
Description: Maize seeds (Zea mays cv. CELLUX) were imbibed in tap water and germinated on a wetted filter paper. After 3 days, the germinated seedlings were transferred to aerated hydroponic tanks filled with Hoagland's nutrient solution. The plants were grown in an environmental chamber with 16 h light period (250 μE m^-2 s^-1) at 27°C and 8 h dark period at 20°C. Tested compounds diluted in DMSO were added to nutrient solution immediately when seedlings were nested in the tanks or after two additional days of cultivation. Control plants were grown in parallel with addition of corresponding amount of DMSO (up to 0.01%). Root and leaf tissues of ten plants were harvested at different time points after the application of the compounds, immediately frozen in liquid nitrogen and used for cytokinin content and transcript level analysis. Length of primary root and the first leaf were determined with ruler on sets of twelve plants, each cultivated in the independent tank (for every cytokinin application repeated ten times). Dry mass of root system and the aerial part was determined after cutting off the kernel and desiccation in dryer for two days at 60°C. […] Fig. 4) and up to 1 micromolar concentration when more seedlings were in the solution (approx. 50 seedlings per 1 liter; Fig. 5). […] Table 7: […]

[6] = test system: excised wheat leaf tips; assay: Senescence inhibition on winter wheat leaf segments (chlorophyll retention); parameters: species or system Triticum aestivum cv. Hereward; conditions: for Concentration with highest activity: retention of chlorophyll; for Activity (%) [10^-4mol.l^-1 KTHP = 100%] / Emax: retention of chlorophyll in excised wheat leaf tips, 96 h in the dark, at concentration with highest activity; for Emax: Triticum aestivum, foliar, read-out: Activity (%) [10^-4mol.l^-1 KTHP = 100%]
Description: Seeds of winter wheat, Triticum aestivum cv. Hereward, were washed under running water for 24 hours and then sown on vermiculite soaked with the Knop's solution. They were placed in the grow chamber at 25 °C with a 16/8 h light period at 50 μmol.m^-2.s^-1. After 7 days, the first leaf was fully developed and the second leaf had started to grow. A tip section of the first leaf, approximately 35 mm long, was removed from 5 seedlings and trimmed slightly to a combined weight of 100 mg. The basal ends of the five leaf tips were placed in the wells of a microtiter polystyrene plate containing 150 μl of the solution of the tested compound each. The entire plate was inserted into a plastic box lined with paper tissues soaked with distilled water to prevent leaf sections from drying out. […] The absorbance of the extract was recorded at 665 nm. In addition, chlorophyll extracts from fresh leaves and leaf tips incubated in deionised water were measured. From the obtained data, the concetration with the highest activity was selected for each compound tested. Relative activity of the compound at this concentration was calculated (Table 7). […] The values shown are means of five replicates and the whole experiment was repeated twice. The compounds to be tested were dissolved in dimethylsulfoxide (DMSO) and the solution brought up to 10^-3 M with distilled water. […] The compounds listed in Table 7 can be divided into 2 groups. The first group contains "classical 6,9-disubstituted purines (KTHP as a control)" known in prior art. […] Table 9: […]

[7] = Calcein AM cytotoxicity assay, B10A.4 cells; conditions: mouse; for CC50 at 72 h: b10a.4 macrophages
Description: as §1, §2

[8] = Calcein AM cytotoxicity assay, BJ cells; conditions: human
Description: as §1, §2

[9] = Calcein AM cytotoxicity assay, NIH3T3 cells; conditions: mouse
Description: as §1, §2

[10] = test system: Arabidopsis thaliana; assay: Arabidopsis root growth inhibition test; assay type: in vivo, Arabidopsis thaliana (ecotype Columbia); conditions: for root growth inhibition (in words): compared to WT, 7-d-old seedlings; for Primary root length 7-d, WT = 100%: 7-d-old plants
Description: Arabidopsis thaliana seeds (ecotype Columbia) were sterilized with 70% ethanol and 0.1% Triton X-100 and then washed 4 times with sterile water. The seeds were transferred to Petri dishes on a solid medium consisting of MS (2.2 g l^-1), sucrose (10 g l^-1), agar (8 g l^-1), and supplemented with cytokinins or DMSO control (0.1% DMSO). After incubation for 3 days in darkness at 4°C, the seeds were germinated and grown horizontally in an environmental chamber at 22/20 °C under an 8 h light (120 µmol photons m^-2 s^-1)/16 h dark cycle for 4 days. 7-d-old seedling were used for measurements of the primary root length. At least 35 plants were used for each treatment and each treatment was repeated in at least 5 individual Petri dishes. The length of the primary root was evaluated using Scion Image software (Scion Corporation, Frederick, MD, USA). All measured parameters were statistically evaluated between untreated and treated plants according to Student's unpaired t-test. […] Tab. Inhibition of the primary root growth in 7-d-old Arabidopsis plants. 100% = WT plants, DMSO treated.

[11] = test system: sweet peppers, cucumbers and tomatoes; assay: Field trials with vegetables, overall; assay type: in vivo; conditions: 10 - 100 nM
Description: Besides, plants were treated with a commercial fertilizer (type Kristalon) with optimal ratio of N,P,K and micronutrients. Dosage of 2-fluoro-6-[(3-methoxylbenzyl)amino]-9-(tetrahydro-2H-pyran-2-yl)-9H-purine was in the range between 10 - 100 nM, but usually 50 or 100 nM from re-planting to the end of vegetation once a week 500 ml to each plant (Table 10). The application of the compound was performed 1-3 times per week (according to the cultivation system - field or hydroponic). Stock solution was prepared in the concentration range 1-5 µM, then dosing into hydroponic system, watering with fertilizer, or in concentration […] in final fertilizer for use in soil conditions. Number of replicates was 10 / 12 plants from each variant (including control).
In case of cucumbers, fruit weight harvested per plant varied from 99,6 / 110,0 %, number of fruits were 102,3 / 106,8 % compared to control. Fruit weight from 1 plant varied from 100,0 to 124,7 % and number of fruits varied from 92,9 to 143,2 %, compared to control, after application of the tested compound to sweet peppers. In most trials, the size of fruits increased after the application of the tested compound.

[12] = Cytotoxicity IC50, B10A.4, first column headed B10A.4
[13] = tested concentration 0.04 µmol.l^-1
[14] = tested concentration 1 µmol.l^-1
[15] = tested concentration 25 µmol.l^-1

## C/C(=C\CO)CNc1nc(F)nc2c1ncn2C1CCCO1 (centres unmarked) [Compound 6]
[1]
  CC50: > 167 µM
[2]
  CC50: > 167 µM
[3]
  CC50: > 167 µM
[4]
  Concentration with highest activity: 10^-5 mol.l^-1
  Activity (%) [10^-8 mol.l^-1 Kin = 100%]: 48.5 (± 6) %
[5]
  Root dry mass (%) [4 x 10^-8 mol.l^-1 Kin = 100%]: 167.2 (± 14) %
  Shoot dry mass (%) [10^-6 mol.l^-1 Kin = 100%]: 121.2 (± 6) %
[5]; root dry mass
  Concentration with highest activity: 10^-7 mol.1^-1
[5]; shoot dry mass
  Concentration with highest activity: 10^-6 mol.1^-1
[6]
  Concentration with highest activity: 10^-4 mol.l^-1
  Activity (%) [10^-4mol.l^-1 KTHP = 100%]: 138.2 (± 17) %

## Oc1cccc(CNc2nc(F)nc3c2ncn3C2CCCO2)c1O (centres unmarked) [Compound 29]
[1]
  CC50: > 167 µM
[2]
  CC50: > 167 µM
[3]
  CC50: > 167 µM
[6]
  Concentration with highest activity: 10^-4 mol.l^-1
  Activity (%) [10^-4mol.l^-1 KTHP = 100%]: 15 (±5) %

## Oc1cccc(CNc2nc(F)nc3c2ncn3C2CCCCO2)c1 (centres unmarked) [Compound 65, 2-Fluoro-6-[(3-hydroxybenzyl)amino]-9-(tetrahydro-2H-pyran-2-yl)-9H-purine]
[7]; [12]
  IC50 at 72 h: > 167 µM
[8]
  IC50 at 72 h: > 167 µM
[9]
  IC50 at 72 h: > 167 µM
[10]
  root growth inhibition (in words): did not caused the inhibition of root
[10]; [13]
  Primary root length 7-d, WT = 100%: 102.9 (±11.0) %
[10]; [14]
  Primary root length 7-d, WT = 100%: 40.6 (±2.1) %
[10]; [15]
  Primary root length 7-d, WT = 100%: 31.3 (±1.8) %
[4]
  Concentration with highest activity: 10^-5 mol.l^-1
  Activity (%) [10^-8 mol.l^-1 Kin = 100%]: 32.6 (± 6) %
[5]
  Root dry mass (%) [4 x 10^-8 mol.l^-1 Kin = 100%]: 187.3 (± 18) %
  Shoot dry mass (%) [10^-6 mol.l^-1 Kin = 100%]: 121.6 (± 7) %
[5]; root dry mass
  Concentration with highest activity: 10^-7 mol.1^-1
[5]; shoot dry mass
  Concentration with highest activity: 10^-6 mol.1^-1
[6]
  Emax: 128%

## COc1cccc(CNc2nc(F)nc3c2ncn3C2CCCCO2)c1 (centres unmarked) [Compound 67, 2-Fluoro-6-[(3-methoxybenzyl)amino]-9-(tetrahydro-2H-pyran-2-yl)-9H-purine]
[7]; [12]
  IC50 at 72 h: > 167 µM
[8]
  IC50 at 72 h: > 167 µM
[9]
  IC50 at 72 h: > 167 µM
[10]
  root growth inhibition (in words): did not cause significant root inhibition
[10]; [13]
  Primary root length 7-d, WT = 100%: 96.9 (±2.4) %
[10]; [14]
  Primary root length 7-d, WT = 100%: 50.3 (±1.1) %
[10]; [15]
  Primary root length 7-d, WT = 100%: 34.9 (±2.1) %
[4]; MS media, range of concentration 0.04 to 5 µM
  effect on elongation of primary root (in words): does not have negative effect on elongation of primary root
[4]
  Concentration with highest activity: 10^-5 mol.l^-1
[5]
  Root dry mass (%) [4 x 10^-8 mol.l^-1 Kin = 100%]: 261.2 (± 20) %
  Shoot dry mass (%) [10^-6 mol.l^-1 Kin = 100%]: 127.6 (± 9) %
[5]; root dry mass
  Concentration with highest activity: 10^-7 mol.1^-1
[5]; root system and aerial part of seedlings
  effect on cell division and organ growth (in words): Positive effect
[5]; shoot dry mass
  Concentration with highest activity: 10^-6 mol.1^-1
[6]
  Emax: 195%
[11]
  effect on fertility term elongation of vegetables, number of fruits, protection against abiotic stress (in words): positive effect

## Oc1cccc(CNc2ncnc3[nH]cnc23)c1 [meta-topolin, reference compound]
[7]; [12]
  CC50 at 72 h: > 167 µM
[7]; Cytotoxicity IC50, B10A.4, second column headed B10A.4
  CC50 at 72 h: 178 µM
[8]; bj fibroblasts
  CC50 at 72 h: 166 µM
[9]; nih3t3 cells
  CC50 at 72 h: 167 µM
[10]; [13]
  Primary root length 7-d, WT = 100%: 67.1 (±7.2) %
[10]; [14]
  Primary root length 7-d, WT = 100%: 33.9 (±2.0) %
[10]; [15]
  Primary root length 7-d, WT = 100%: 19.3 (±2.3) %

— patent EP4178959B1, “NITROGEN HETEROCYCLIC CYTOKININ DERIVATIVES, COMPOSITIONS CONTAINING THESE DERIVATIVES AND USE THEREOF” (Univerzita Palackého v Olomouci, priority 2020, dated 2022)
